According to ChEMBL document CHEMBL1201862, “PubChem BioAssay data set” (2004):
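Protocol summary: plate cells (96-well), add compound at 5 concentrations, incubate 48 h, interpolate endpoints linearly. GI50 marks 50% less growth.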 Active and inactive are the calls of the source. No stated cut-off is given here; in the data, active = GI50 up to about 1.1 µM and inactive = higher.

How the values were obtained:
Experiment in all cases: NCI anticancer screen, dose series, 48 h
CAKI-1 = tested on: CAKI-1
COLO 205 = tested on: COLO 205
EKVX = tested on: EKVX
HCC 2998 = tested on: HCC 2998
HCT-116 = tested on: HCT-116
HL-60 = tested on: HL-60
HOP-62 = tested on: HOP-62
LOX IMVI = tested on: LOX IMVI
M14 = tested on: M14
Malme-3M = tested on: Malme-3M
NCI-H226 = tested on: NCI-H226
NCI-H522 = tested on: NCI-H522
OVCAR-5 = tested on: OVCAR-5
RPMI-8226 = tested on: RPMI-8226
SK-MEL-28 = tested on: SK-MEL-28
SK-MEL-5 = tested on: SK-MEL-5
SK-OV-3 = tested on: SK-OV-3
SW-620 = tested on: SW-620
TK-10 = tested on: TK-10
UO-31 = tested on: UO-31

Measured: GI50

NC(=O)CCC(NCc1c2ccccc2[n+]([O-])c2ccccc12)C(=O)O (stereo not given)
inactive: CAKI-1 82.8 µM | COLO 205 > 100 µM | EKVX > 100 µM | HCC 2998 > 100 µM | HCT-116 30.8 µM | HL-60 29.3 µM | HOP-62 > 100 µM | LOX IMVI 39.1 µM | M14 > 100 µM | Malme-3M 81.8 µM | NCI-H226 60.1 µM | NCI-H522 70 µM | OVCAR-5 > 100 µM | RPMI-8226 36.1 µM | SK-MEL-28 > 100 µM | SK-MEL-5 68.7 µM | SK-OV-3 > 100 µM | SW-620 52.5 µM | TK-10 > 100 µM | UO-31 59 µM
